Laboratory results taken from patent US11897862B2 (Gilead Sciences, Inc., priority 2022, dated 2024).

Key:
[1] = molecular target: IKZF2 (Homo sapiens, UniProt Q96SW2+Q9UKS7); experiment: HEK293 HiBiT in vitro degradation of IKZF2; format: cell-based; design: expressed in transfected cells; conditions: for Dmax: HEK293, HEK293 HiBiT; for Dmax / IKZF2 Dmax: maximum degradation at the highest concentration tested; for DC50 / IKZF2 Dmax: HEK293 HiBiT; for DC50: 18-24 hr incubation, normalized to DMSO control, read-out: IKZF2 EC50
Sequence of IKZF2 (Q9UKS7 1-500 isoform Q9UKS7-2): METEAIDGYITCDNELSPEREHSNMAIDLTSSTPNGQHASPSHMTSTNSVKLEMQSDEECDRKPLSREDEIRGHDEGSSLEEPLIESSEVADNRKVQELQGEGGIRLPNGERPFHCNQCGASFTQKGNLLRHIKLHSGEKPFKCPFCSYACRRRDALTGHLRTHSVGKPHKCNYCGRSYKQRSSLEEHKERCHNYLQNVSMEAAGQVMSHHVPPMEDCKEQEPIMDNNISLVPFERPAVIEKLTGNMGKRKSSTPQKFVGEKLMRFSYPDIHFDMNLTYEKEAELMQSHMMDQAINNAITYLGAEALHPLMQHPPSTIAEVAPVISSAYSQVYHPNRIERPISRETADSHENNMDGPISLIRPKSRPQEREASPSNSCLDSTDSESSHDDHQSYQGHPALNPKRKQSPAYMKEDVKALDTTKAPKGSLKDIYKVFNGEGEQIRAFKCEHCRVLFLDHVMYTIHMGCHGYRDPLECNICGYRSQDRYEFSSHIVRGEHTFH
Sequence of IKZF2 (Q96SW2 whole entry): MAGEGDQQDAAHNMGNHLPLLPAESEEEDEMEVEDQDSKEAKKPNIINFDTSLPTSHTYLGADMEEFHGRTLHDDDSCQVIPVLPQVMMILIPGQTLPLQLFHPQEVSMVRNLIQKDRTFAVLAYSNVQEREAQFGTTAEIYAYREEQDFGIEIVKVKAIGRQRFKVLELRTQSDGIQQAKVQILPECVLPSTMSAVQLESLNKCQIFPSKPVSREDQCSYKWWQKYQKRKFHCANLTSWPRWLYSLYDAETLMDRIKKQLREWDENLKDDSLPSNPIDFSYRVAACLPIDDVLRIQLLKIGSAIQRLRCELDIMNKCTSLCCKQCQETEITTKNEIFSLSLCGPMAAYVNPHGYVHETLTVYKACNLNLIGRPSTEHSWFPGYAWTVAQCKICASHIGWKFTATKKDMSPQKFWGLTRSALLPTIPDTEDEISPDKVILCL
Sequence of IKZF2 (Q16531 whole entry partner): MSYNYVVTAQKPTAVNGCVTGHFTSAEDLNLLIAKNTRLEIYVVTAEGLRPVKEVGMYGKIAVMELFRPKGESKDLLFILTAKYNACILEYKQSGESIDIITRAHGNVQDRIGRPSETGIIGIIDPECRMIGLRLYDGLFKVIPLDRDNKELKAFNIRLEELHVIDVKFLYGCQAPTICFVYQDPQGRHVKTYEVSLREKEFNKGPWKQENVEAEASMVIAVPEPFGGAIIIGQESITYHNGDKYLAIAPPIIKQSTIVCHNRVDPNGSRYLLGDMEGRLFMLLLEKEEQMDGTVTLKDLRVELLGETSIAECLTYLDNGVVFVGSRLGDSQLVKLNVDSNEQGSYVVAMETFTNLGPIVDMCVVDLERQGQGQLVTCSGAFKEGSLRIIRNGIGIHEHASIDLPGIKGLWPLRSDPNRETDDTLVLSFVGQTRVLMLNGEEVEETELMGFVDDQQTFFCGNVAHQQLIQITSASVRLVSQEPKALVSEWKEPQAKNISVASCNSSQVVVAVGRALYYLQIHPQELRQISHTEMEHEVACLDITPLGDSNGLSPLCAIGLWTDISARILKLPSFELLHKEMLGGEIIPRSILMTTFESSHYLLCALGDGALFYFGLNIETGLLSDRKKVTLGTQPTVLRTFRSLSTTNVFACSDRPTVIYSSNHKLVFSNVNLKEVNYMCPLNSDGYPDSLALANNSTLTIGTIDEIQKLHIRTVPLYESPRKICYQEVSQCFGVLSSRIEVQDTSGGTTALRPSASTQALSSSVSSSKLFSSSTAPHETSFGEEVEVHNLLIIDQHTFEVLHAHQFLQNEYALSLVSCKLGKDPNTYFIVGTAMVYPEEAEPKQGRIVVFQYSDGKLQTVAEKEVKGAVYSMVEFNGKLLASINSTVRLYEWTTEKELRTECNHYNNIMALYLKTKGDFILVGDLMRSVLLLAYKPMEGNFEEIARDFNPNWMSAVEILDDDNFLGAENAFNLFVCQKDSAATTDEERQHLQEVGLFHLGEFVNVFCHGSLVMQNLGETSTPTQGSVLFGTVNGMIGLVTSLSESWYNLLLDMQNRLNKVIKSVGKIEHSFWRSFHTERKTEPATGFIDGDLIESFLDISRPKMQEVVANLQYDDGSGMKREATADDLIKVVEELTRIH
Procedure, shortened: (§1)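 Flp-In T-REx HEK293 pools stably expressing C-terminal HiBiT-tagged IKZF1, IKZF2 or SALL4 (single-copy, Tet-On), induced overnight with […] doxycycline. Cells exposed to serially diluted compounds for 18-24 hr at 37° C. Nano-Glo lytic luminescence gave EC50 and Dmax.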

[2] = molecular target: T1, IKZF1 (Homo sapiens, UniProt Q13422+Q96SW2); experiment: HEK293 HiBiT in vitro degradation of IKZF1; format: cell-based; conditions: for Dmax: HEK293, HEK293 HiBiT; for Dmax / IKZF1 Dmax: maximum degradation at the highest concentration tested; for DC50 / IKZF1 Dmax: HEK293 HiBiT; for DC50: 18-24 hr incubation, normalized to DMSO control, read-out: IKZF1 EC50
T1 construct: expressed in transfected cells
T1 sequence (Q13422 whole entry): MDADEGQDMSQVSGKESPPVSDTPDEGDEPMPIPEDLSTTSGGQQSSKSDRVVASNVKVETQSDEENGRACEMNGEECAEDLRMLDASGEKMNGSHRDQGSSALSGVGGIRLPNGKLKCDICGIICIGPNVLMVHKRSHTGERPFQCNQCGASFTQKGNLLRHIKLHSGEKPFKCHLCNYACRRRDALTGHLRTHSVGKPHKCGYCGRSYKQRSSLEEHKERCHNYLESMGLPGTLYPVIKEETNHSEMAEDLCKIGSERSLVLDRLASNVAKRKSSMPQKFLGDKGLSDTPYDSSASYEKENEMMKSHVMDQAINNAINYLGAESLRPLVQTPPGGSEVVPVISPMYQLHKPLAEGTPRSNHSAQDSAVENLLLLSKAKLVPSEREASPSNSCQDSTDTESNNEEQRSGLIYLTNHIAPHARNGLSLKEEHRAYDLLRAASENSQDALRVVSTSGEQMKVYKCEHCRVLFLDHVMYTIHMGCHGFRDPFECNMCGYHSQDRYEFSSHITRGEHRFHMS
T1 sequence (Q96SW2 whole entry): as the sequence (Q96SW2 whole entry) above
T1 sequence (Q16531 whole entry partner): as the sequence (Q16531 whole entry partner) above
Procedure, shortened: as §1

SMILES	Dmax [1]	DC50 [1]	Dmax [2]	DC50 [2]	IKZF2 Dmax [1]	IKZF1 Dmax [2]
O=C1CCC(N2Cc3cc(C[C@H]4CC[C@@H](F)C[C@@H]4NC4CCC(F)(F)CC4)ccc3C2=O)C(=O)N1 (stereo partly drawn) [Example 354]	93%	0.003 µM	32%	0.03 µM		
O=C1CC[C@@H](N2Cc3c(ccc(C[C@H]4OCCC[C@@H]4N[C@H]4CC[C@@H](F)CC4)c3F)C2=O)C(=O)N1 (single isomer, unassigned) [Example 372]	94%	0.005 µM		> 1 µM		
CC1(C)OCC(N[C@H]2CCCC[C@@H]2Cc2ccc3c(c2)CN(C2CCC(=O)NC2=O)C3=O)CO1 (stereo partly drawn) [Example 161]	88%	0.095 µM		> 1 µM		
CC(c1ccc2c(c1)CN(C1CCC(=O)NC1=O)C2=O)[C@H]1CCCC[C@@H]1NC1CCC(F)(F)CC1 (stereo partly drawn) [Example 147]	75%	0.037 µM		> 1 µM		
O=C1CCC(N2Cc3c(ccc(C[C@H]4CCCC[C@@H]4NCC4CCC(F)(F)CC4)c3F)C2=O)C(=O)N1 (stereo partly drawn) [Example 99]	94%	0.014 µM	37%	0.068 µM		
O=C1CCC(N2Cc3c(ccc(C[C@H]4CCCC[C@@H]4NC4CCOCC4)c3F)C2=O)C(=O)N1 (stereo partly drawn) [Example 188]		0.002 µM		0.044 µM	98%	34%
O=C1CCC(N2Cc3cc(C[C@H]4CCCC[C@@H]4NC4CCc5cn[nH]c5C4)ccc3C2=O)C(=O)N1 (stereo partly drawn) [Example 165]	98%	0.02 µM	28%	0.27 µM		
O=C1CCC(N2Cc3cc(C[C@H]4CCCC[C@@H]4NCCOc4ccccc4Cl)ccc3C2=O)C(=O)N1 (stereo partly drawn) [Example 65]	64%	0.048 µM		> 1 µM		
O=C1CCC(N2Cc3cc(C[C@H]4CCCC[C@@H]4NC4CCCOCC4)ccc3C2=O)C(=O)N1 (stereo partly drawn) [Example 197]	97%	0.005 µM	22%	0.068 µM		
O=C1CC[C@H](N2Cc3cc(C[C@H]4CCCC[C@@H]4NC4CCCCC4)ccc3C2=O)C(=O)N1 (single isomer, unassigned) [Example 336]	97%	0.003 µM		> 1 µM		
O=C1CCC(N2Cc3cc(C[C@H]4CCCC[C@@H]4NC4CCC5(CC4)CC5(F)F)ccc3C2=O)C(=O)N1 (single isomer, unassigned) [Example 271]	98%	0.002 µM	44%	0.045 µM		
COC1CCC(NC2CCCOC2Cc2ccc3c(c2F)CN(C2CCC(=O)NC2=O)C3=O)CC1 (stereo not drawn) [Example 156]	98%	0.006 µM		> 1 µM		
CC(N[C@H]1CCCC[C@@H]1Cc1ccc2c(c1)CN(C1CCC(=O)NC1=O)C2=O)C1CCCC1 (stereo partly drawn) [Example 201]	96%	0.007 µM		> 1 µM		
CC(N[C@H]1CCCC[C@@H]1Cc1ccc2c(c1)CN(C1CCC(=O)NC1=O)C2=O)C(C)(C)F (single isomer, unassigned) [Example 226]	93%	0.014 µM	84%	0.017 µM		
O=C1CCC(N2Cc3cc(C[C@H]4OCCC[C@@H]4NC4CCC(C(F)(F)F)CC4)ccc3C2=O)C(=O)N1 (single isomer, unassigned) [Example 356]	76%	0.049 µM		> 1 µM		
O=C1CCC(N2Cc3cc(C[C@H]4C[C@@H](O)CC[C@@H]4NC4CCC(F)(F)CC4)ccc3C2=O)C(=O)N1 (stereo partly drawn) [Example 162]	93%	0.058 µM	42%	0.226 µM		
CC(CC1CC1)N[C@H]1CCCC[C@@H]1Cc1ccc2c(c1)CN(C1CCC(=O)NC1=O)C2=O (single isomer, unassigned) [Example 231]		0.003 µM		> 1 µM	96%	
O=C1CCC(N2Cc3cc(C[C@H]4CCCC[C@@H]4NCc4cc(F)cc(F)c4)ccc3C2=O)C(=O)N1 (stereo partly drawn) [Example 15, 3-(5-(((1R,2S)-2-((3,5-difluorobenzyl)amino)cyclohexyl)methyl)-1-oxoisoindolin-2-yl)piperidine-2,6-dione]	95%	0.02 µM		> 1 µM		
CC(N[C@H]1CCCC[C@@H]1Cc1ccc2c(c1)CN(C1CCC(=O)NC1=O)C2=O)C1(C#N)CC1 (single isomer, unassigned) [Example 255]		0.032 µM		> 1 µM	87%	

SMILES	Dmax [1]	DC50 [1]	Dmax [2]	DC50 [2]	IKZF2 Dmax [1]	IKZF1 Dmax [2]
N#CCC1CCC(N[C@H]2CCCC[C@@H]2Cc2ccc3c(c2)CN(C2CCC(=O)NC2=O)C3=O)CC1 (single isomer, unassigned) [Example 270]		0.008 µM		0.179 µM	98%	22%
CO[C@@H]1CCC[C@H](Cc2ccc3c(c2)CN(C2CCC(=O)NC2=O)C3=O)[C@H]1NC1CCC(F)(F)CC1 (stereo partly drawn) [Example 164]	83%	0.017 µM		> 1 µM		
O=C1CCC(N2Cc3cc(C[C@H]4CCCC[C@@H]4NCCc4ccccc4)ccc3C2=O)C(=O)N1 (stereo partly drawn) [Example 93, 3-(1-oxo-5-(((1R,2S)-2-(phenethylamino)cyclohexyl)methyl)isoindolin-2-yl)piperidine-2,6-dione]	91%	0.023 µM	22%	0.039 µM		
O=C1CCC(N2Cc3cc(C[C@H]4CCCC[C@@H]4N4CC5(CN(Cc6ccccc6Cl)C5)C4)ccc3C2=O)C(=O)N1 (stereo partly drawn) [Example 34, 3-(5-(((1R,2S)-2-(6-(2-chlorobenzyl)-2,6-diazaspiro[3.3]heptan-2-yl)cyclohexyl)methyl)-1-oxoisoindolin-2-yl)piperidine-2,6-dione]	80%	0.028 µM	29%	0.051 µM		
O=C1CCC(N2Cc3cc(C[C@H]4CCCC[C@@H]4NCc4cscn4)ccc3C2=O)C(=O)N1 (stereo partly drawn) [Example 36, 3-(1-oxo-5-(((1R,2S)-2-((thiazol-4-ylmethyl)amino)cyclohexyl)methyl)isoindolin-2-yl)piperidine-2,6-dione]	89%	0.046 µM	33%	0.101 µM		
CC1(C)CC(N[C@H]2CCCC[C@@H]2Cc2ccc3c(c2)CN(C2CCC(=O)NC2=O)C3=O)CC(C)(C)C1 (stereo partly drawn) [Example 144]	97%	0.007 µM		> 1 µM		
O=C1CCC(N2Cc3cc(C[C@H]4CCCC[C@@H]4NC4CCC(n5cnnc5)CC4)ccc3C2=O)C(=O)N1 (stereo partly drawn) [Example 380]	71%	0.4 µM		> 1 µM		
CCC(C)N[C@H]1CCCC[C@@H]1Cc1ccc2c(c1)CN(C1CCC(=O)NC1=O)C2=O (single isomer, unassigned) [Example 300]		0.004 µM		> 1 µM	97%	
CC1(C)CC2(CC(N[C@H]3CCCC[C@@H]3Cc3ccc4c(c3)CN(C3CCC(=O)NC3=O)C4=O)C2)C1 (stereo partly drawn) [Example 100]	94%	0.012 µM	34%	0.061 µM		
CC(=O)N1CCC(N[C@H]2CCCC[C@@H]2Cc2ccc3c(c2)CN(C2CCC(=O)NC2=O)C3=O)CC1 (stereo partly drawn) [Example 108]	96%	0.055 µM		> 1 µM		
O=C1CCC(N2Cc3c(ccc(C[C@H]4CCCC[C@@H]4NC4CCOC4)c3F)C2=O)C(=O)N1 (stereo partly drawn) [Example 189]		0.002 µM		0.039 µM	97%	46%
C[C@@]1(O)CC[C@H](NC2CCC(F)(F)CC2)[C@@H](Cc2ccc3c(c2)CN(C2CCC(=O)NC2=O)C3=O)C1 (stereo partly drawn) [Example 154]	90%	0.114 µM		> 0.5 µM		
CC(N[C@H]1CCCO[C@@H]1Cc1ccc2c(c1F)CN(C1CCC(=O)NC1=O)C2=O)C1COC1 (stereo partly drawn) [Example 319]		0.024 µM		> 1 µM	95%	
O=C1CCC(N2Cc3cc(C[C@H]4CCCC[C@@H]4NC4CCc5c(C(F)(F)F)n[nH]c5C4)ccc3C2=O)C(=O)N1 (stereo partly drawn) [Example 375]	99%	0.004 µM	65%	0.048 µM		
O=C1CCC(N2Cc3c(ccc(C[C@H]4OCCC[C@@H]4NC4CC5(CCC5)C4)c3F)C2=O)C(=O)N1 (stereo partly drawn) [Example 157]	92%	0.008 µM	35%	0.061 µM		
CCC(C)N[C@H]1CCCC[C@@H]1Cc1ccc2c(c1F)CN(C1CCC(=O)NC1=O)C2=O (single isomer, unassigned) [Example 294]	97%	0.002 µM	59%	0.912 µM		
CC1(C)CCC(N[C@H]2CCCC[C@@H]2Cc2ccc3c(c2)CN(C2CCC(=O)NC2=O)C3=O)CC1 (stereo partly drawn) [Example 27, 3-(5-(((1R,2S)-2-((4,4-dimethylcyclohexyl)amino)cyclohexyl)methyl)-1-oxoisoindolin-2-yl)piperidine-2,6-dione]	97%	0.003 µM	27%	0.07 µM		
O=C1CCC(N2Cc3cc(C[C@H]4CCCC[C@@H]4N4CC(Oc5ccccc5)C4)ccc3C2=O)C(=O)N1 (stereo partly drawn) [Example 32, 3-(1-oxo-5-(((1R,2S)-2-(3-phenoxyazetidin-1-yl)cyclohexyl)methyl)isoindolin-2-yl)piperidine-2,6-dione]	90%	0.021 µM		> 1 µM		
O=C1CCC(N2Cc3cc(C[C@H]4CCCC[C@@H]4NCc4ccc(F)cn4)ccc3C2=O)C(=O)N1 (stereo partly drawn) [Example 49, 3-(5-(((1R,2S)-2-(((5-fluoropyridin-2-yl)methyl)amino)cyclohexyl)methyl)-1-oxoisoindolin-2-yl)piperidine-2,6-dione]	66%	0.088 µM		> 1 µM		
